Assays:
[1] = Inhibition of VIM-2 (unknown origin) incubated for 15 mins by absorbance based microplate reader analysis; set-up: species or system Bacteria
[2] = tested on: Escherichia coli; experiment: Antibacterial activity against clinical isolate Escherichia coli 371/12 expressing blaNDM-7 co-expressing blaCTX-M-15 and blaOXA-1 assessed as meropenem MIC at 72.88 uM measured after 20 hrs by broth microdilution assay (reference value: 24 mg/L); type: functional
[3] = tested on: Escherichia coli; experiment: Antibacterial activity against clinical isolate Escherichia coli K12 J53-ST10 618/15 expressing blaNDM-1 assessed as meropenem MIC at 36.44 uM measured after 20 hrs by broth microdilution assay (reference value: 12 mg/L); type: functional
[4] = tested on: Escherichia coli; experiment: Antibacterial activity against clinical isolate Escherichia coli ST1012/10 expressing blaNDM-1 co-expressing blaTEM-1/blaCTX-M-15/blaOXA-1 and blaOXA-2 assessed as meropenem MIC at 72.88 uM measured after 20 hrs by broth microdilution assay (reference value: 24 mg/L); type: functional
[5] = tested on: Escherichia coli; experiment: Antibacterial activity against clinical isolate Escherichia coli K12 J53-ST10 696/17 expressing blaNDM-1 co-expressing blaCMY-4 assessed as meropenem MIC at 36.44 uM measured after 20 hrs by broth microdilution assay (reference value: 12 mg/L); type: functional
[6] = tested on: Klebsiella pneumoniae; experiment: Antibacterial activity against clinical isolate Klebsiella pneumoniae 50/11 expressing blaNDM-1 co-expressing blaTEM-1/blaSHV-28/blaTEM-1/blaCTX-M-15 and blaOXA-1 assessed as meropenem MIC at 72.88 uM measured after 20 hrs by broth microdilution assay (reference value: 24 mg/L); type: functional
[7] = tested on: Klebsiella pneumoniae; experiment: Antibacterial activity against clinical isolate Klebsiella pneumoniae ST23213/19 expressing blaNDM-1 co-expressing blaOXA-48/blaSHV-11/blaCTX-M-15 and blaOXA-1 assessed as meropenem MIC at 72.88 uM measured after 20 hrs by broth microdilution assay (reference value: 24 mg/L); type: functional
[8] = tested on: Escherichia coli; experiment: Antibacterial activity against clinical isolate Escherichia coli 371/12 expressing blaNDM-7 co-expressing blaCTX-M-15 and blaOXA-1 assessed as meropenem MIC at 36.44 uM measured after 20 hrs by broth microdilution assay (reference value: 12 mg/L); type: functional
[9] = tested on: Escherichia coli; experiment: Antibacterial activity against clinical isolate Escherichia coli ST1012/10 expressing blaNDM-1 co-expressing blaTEM-1/blaCTX-M-15/blaOXA-1 and blaOXA-2 assessed as meropenem MIC at 36.44 uM measured after 20 hrs by broth microdilution assay (reference value: 12 mg/L); type: functional
[10] = target: Metallo-beta-lactamase type 2 (Bacteria, UniProt C7C422)
Chain of Metallo-beta-lactamase type 2 (C7C422 whole entry): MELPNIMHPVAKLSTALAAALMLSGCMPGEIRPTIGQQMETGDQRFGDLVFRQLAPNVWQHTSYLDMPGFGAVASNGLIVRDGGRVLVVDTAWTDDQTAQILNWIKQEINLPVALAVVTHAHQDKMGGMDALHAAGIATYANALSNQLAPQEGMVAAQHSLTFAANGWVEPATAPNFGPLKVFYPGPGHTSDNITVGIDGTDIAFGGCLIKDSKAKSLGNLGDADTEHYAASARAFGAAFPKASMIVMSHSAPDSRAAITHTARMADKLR
Description: Inhibition of C-terminal 6His-tagged full length NDM-1 (unknown origin) expressed in Escherichia coli BL21-DE3 using nitrocefin as substrate incubated for 15 mins followed by substrate addition by absorbance based microplate reader analysis

[11] = Inhibition of IMP-1 (unknown origin) expressed in Escherichia coli BL21-DE3 incubated for 15 mins by absorbance based microplate reader analysis; set-up: species or system Bacteria

Compound `O=C(O)c1ccc2cccc(NS(=O)(=O)c3ccccn3)c2n1` has an IC50 [1] of 240 nM, an MIC [2] of no more than 0.125 µg/mL and an MIC [3] of no more than 0.125 µg/mL. It also gave an MIC [4] of no more than 0.125 µg/mL, an MIC [5] of no more than 0.125 µg/mL and an MIC [6] of no more than 0.125 µg/mL. It also gave an MIC [7] of 16 µg/mL, an MIC [8] of 8 µg/mL and an MIC [9] of no more than 0.125 µg/mL. The IC50 [10] was 290 nM and the IC50 [11] was 370 nM.
